Experimental data published in patent US6608027B1, “Macrocyclic peptides active against the hepatitis C virus” (Boehringer Ingelheim (Canada) Ltd, priority 1999, dated 2003).
Read-outs that look alike come from different tables or passages of the source.

Key:
HCV NS3 protease type 1b = HCV NS3 protease type 1b (Hepatitis C virus genotype 1b, UniProt P26663); assay: Recombinant HCV NS3 protease radiometric assay; format: biochemical
Protocol: The substrate used for the HCV NS3 protease radiometric assay, DDIVPC-SMSYTW (SEQ. ID NO.: 2), is cleaved between the cysteine and the serine residues by the enzyme. The sequence DDIVPC-SMSYTW (SEQ. ID NO.: 2) corresponds to the NS5A/NS5B natural cleavage site in which the cysteine residue in P2 has been substituted for a proline. The peptide substrate DDIVPC-SMSYTW (SEQ. ID NO.: 2) and the tracer biotin-DDIVPC-SMS[^125I-Y]TW (SEQ. ID NO.: 3) were incubated with the recombinant NS3 protease in the absence or in the presence of inhibitors. The separation of substrate from products was performed by adding avidin-coated agarose beads to the assay mixture followed by filtration. The amount of SMS[^125I-Y]TW (SEQ. ID NO.: 4) product found in the filtrate (with or without inhibitor) allowed for the calculation of the percentage of substrate conversion and of the percentage of inhibition.
Assay buffer: 50 mM Tris-HCl, pH 7.5, 30% (w/v) glycerol, 2% (w/ v) CHAPS, 1 mg/mL BSA, 1 mM TCEP (TCEP added just prior to use from a 1 M stock solution in water).
Substrate: DDIVPC-SMSYTW (SEQ. ID NO.: 2), 25 μM final concentration (from a 2 mM stock solution in DMSO stored at −20° C. to avoid oxidation).
Tracer: reduced mono-iodinated substrate(biotin-DDIVPC-SMS[^125I-Y]TW (SEQ. ID NO.: 3)) (≈1 nM final concentration).
HCV NS3 protease type 1b, 25 nM final concentration (from a stock solution in 50 mM sodium phosphate, pH 7.5, 10% glycerol, 300 mM NaCl, 5 mM DTT, 0.01% NP-40).
The assay was performed in a 96-well polypropylene plate. Each well contained:
20 μL substrate/tracer in assay buffer;
10 μL±inhibitor in 20% DMSO/assay buffer;
Blank (no inhibitor and no enzyme) and control (no inhibitor) were also prepared on the same assay plate.
The enzymatic reaction was initiated by the addition of the enzyme solution and the assay mixture was incubated for 60 min at 23° C. under gentle agitation. Twenty (20) μL of 0.025 N NaOH were added to quench the enzymatic reaction.
Twenty (20) μL of avidin-coated agarose beads (purchased from Pierce®) were added in a Millipore® MADP N65 filtration plate. The quenched assay mixture was transferred to the filtration plate, and incubated for 60 min at 23° C. under gentle agitation.
The plates were filtered using a Millipore® MultiScreen Vacuum Manifold Filtration apparatus, and 40 μL of the filtrate was transferred to an opaque 96-well plate containing 60 μL of scintillation fluid per well.
The filtrates were counted on a Packard® TopCount instrument using a ^125I-liquid protocol for 1 minute. The %inhibition was calculated with the following equation:
100−[(countsinh−countsblank)/(countsctl−countsblank)×100] […]

[1] = asterisk (*) = radiometric assay of Example 49, read-out: enzyme activity (IC50 grade), asterisk

Sequence of HCV NS3 protease type 1b (P26663 1027-1208): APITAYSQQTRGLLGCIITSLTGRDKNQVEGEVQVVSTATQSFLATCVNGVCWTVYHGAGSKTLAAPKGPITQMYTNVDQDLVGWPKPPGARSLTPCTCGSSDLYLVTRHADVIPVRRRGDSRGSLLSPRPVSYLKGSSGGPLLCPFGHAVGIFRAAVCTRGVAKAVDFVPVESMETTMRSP

Structure (SMILES)	IC50 (HCV NS3 protease type 1b; [1])	further results
COc1ccc2c(O[C@@H]3C[C@H]4C(=O)N[C@]5(C(=O)O)C[C@H]5CCN(C)CCCC[C@H](NC(=O)OC(C)(C)C)C(=O)N4C3)cc(-c3ccccc3)nc2c1 [Cpd 504]	> 1000 nM	–
COc1ccc2c(O[C@@H]3C[C@H]4C(=O)N[C@]5(C(=O)O)C[C@H]5CC/C=C\CS[C@@H](C)[C@H](NC(=O)OC(C)(C)C)C(=O)N4C3)cc(-c3ccccc3)nc2c1 [Compound 411]	> 1000 nM	–
COc1ccc2c(O[C@@H]3C[C@H]4C(=O)N[C@@]5(C(=O)O)C[C@@H]5/C=C\CCCCC[C@H](NC(=O)OC(C)(C)C)C(=O)N4C3)cc(-c3ccccc3)nc2c1 [Compound 210]	–	IC50 (HCV NS3 protease type 1b): > 1000 nM
COC(=O)[C@@]12C[C@H]1CCCCNCC[C@H](NC(=O)OC(C)(C)C)C(=O)N1C[C@H](Oc3cc(-c4ccccc4)nc4cc(OC)ccc34)C[C@H]1C(=O)N2	–	ring closure, yield of all isomers (from COC(=O)[C@@]1(NC(=O)[C@@H]2C[C@@H](Oc3cc(-c4ccccc4)nc4cc(OC)ccc34)CN2C(=O)[C@H](CCNC(=O)OCc2ccccc2)NC(=O)OC(C)(C)C)C[C@H]1CCCC=O, amine bond, H2, Pd(OH)2, AcOH, ethanol, 44.0 mM, 25.0 °C, 40.0 h, 2 steps): 30%
COc1ccc2c(O[C@@H]3C[C@H]4C(=O)N[C@]5(C(=O)O)C[C@@H]5CCCCC[C@H](NC(=O)OC(C)(C)C)C(=O)N4C3)cc(-c3ccccc3)nc2c1 [Compound 306]	> 1000 nM	–
COC(=O)[C@@]12CC1C=CCCCCC[C@H](NC(=O)OC(C)(C)C)C(=O)N1C[C@@H](O)C[C@H]1C(=O)N2 (stereo partly drawn)	–	ring closure, yield of all isomers (from C=CCCCCC[C@H](NC(=O)OC(C)(C)C)C(=O)N1C[C@@H](O)C[C@H]1C(=O)N[C@]1(C(=O)OC)CC1C=C, rcm bond, Hoveyda's catalyst, CH2Cl2, 9.85 mM, 40.0 °C, 28.0 h): 89%
